In patent US20240360154A1, “AROYL SUBSTITUTED TRICYCLIC COMPOUND, PREPARATION METHOD THEREFOR AND USE THEREOF” (GENFLEET THERAPEUTICS (SHANGHAI) INC., priority 2020, published 2024):

Assays:
BTK = BTK (Homo sapiens (Human), UniProt Q06187); assay: BTK enzyme experiment (ADP-Glo kinase assay); format: biochemical; conditions: 10 nM BTK, ATP 125 μM, Poly(Glu4, Tyr1), 90 minutes at 20° C.; read-out: BTK(WT) IC50
Procedure: (§1) A 3-fold gradient concentration stock solution of 1000× compound was prepared using DMSO and diluted 100-fold to 10× compound stock solution using reaction buffer (50 mM HEPES, pH 7.5, 0.0015% Briji-35, 2 mM DTT, 10 mM MgCl2), and the 10× compound stock solution was transferred to a 384-well plate. Enzyme reactions were set up with BTK Kinase Enzyme System (Promega Catalog #V2941) or BTK (C481S) Kinase Enzyme System (Promega Catalog #VA7033). First, a 2× enzyme solution containing 10 nM BTK or 10 nM BTK C481S was prepared with reaction buffer and added to the plate, and incubated with the compound for 10 minutes. […] Finally, the kinase activity was detected according to the experimental steps provided by ADP-Glo™ kinase Assay Kit (Promega, #V9101), and finally the luminescence chemiluminescence value was read. DMSO was used as the maximum signal value, and adding no enzyme was used as the minimum signal value. The inhibition rate of the compound (%)=(maximum signal value−compound signal value)/(maximum signal value−minimum signal value)×100% was calculated. The compound gradient dilution concentration and the corresponding inhibition rate of the enzyme activity were fit by using XLFit four-parameter method, and IC50 value was calculated.

BTK (C481S) = BTK (C481S) (Homo sapiens (Human), UniProt Q06187, C481S); assay: BTK C481S enzyme experiment (ADP-Glo kinase assay); format: biochemical; conditions: 10 nM BTK C481S, ATP 125 μM, Poly(Glu4, Tyr1), 90 minutes at 20° C.
Procedure: as §1

BTK, sequence (Q06187 whole entry): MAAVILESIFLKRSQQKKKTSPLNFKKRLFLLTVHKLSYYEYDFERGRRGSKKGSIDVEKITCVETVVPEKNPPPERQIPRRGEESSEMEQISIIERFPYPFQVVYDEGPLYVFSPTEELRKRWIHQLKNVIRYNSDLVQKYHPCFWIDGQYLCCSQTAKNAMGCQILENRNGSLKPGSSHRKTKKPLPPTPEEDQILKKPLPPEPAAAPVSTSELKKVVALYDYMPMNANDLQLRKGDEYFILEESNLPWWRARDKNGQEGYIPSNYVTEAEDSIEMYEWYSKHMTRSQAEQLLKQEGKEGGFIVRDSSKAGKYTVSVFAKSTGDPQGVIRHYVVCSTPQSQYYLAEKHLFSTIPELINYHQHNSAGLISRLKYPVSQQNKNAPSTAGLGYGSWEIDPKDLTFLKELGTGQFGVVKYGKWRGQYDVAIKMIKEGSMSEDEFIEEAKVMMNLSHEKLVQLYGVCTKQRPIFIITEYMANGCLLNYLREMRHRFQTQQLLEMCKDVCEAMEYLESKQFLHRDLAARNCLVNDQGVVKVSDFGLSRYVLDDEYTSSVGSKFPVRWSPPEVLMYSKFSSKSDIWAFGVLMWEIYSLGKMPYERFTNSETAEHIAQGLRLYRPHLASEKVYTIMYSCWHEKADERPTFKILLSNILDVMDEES
BTK (C481S), sequence (Q06187 whole entry C481S): as the sequence (Q06187 whole entry) above, with C481S counted along it

Row | SMILES | IC50 (BTK) | IC50 (BTK (C481S))
1 | N#C[C@H]1CC[C@@]2(C1)Nc1c(cnc3[nH]cc(C(=O)c4ccc(Oc5ccccc5)cc4Cl)c13)NC2=O (single isomer, unassigned) [Z26-4] | 35.9 nM | 28.5 nM
2 | COCC1(C)Nc2c(cnc3[nH]cc(C(=O)c4ccc(Oc5ccccc5)cc4Cl)c23)N(C)C1=O (single isomer, unassigned) [Z52-2, 9-(2-chloro-4-phenoxybenzoyl)-2-(methoxymethyl)-2,4-dimethyl-1,2,4,7-tetrahydro-3H-pyrrolo[3′,2′:5,6]pyrido[3,4-b]pyrazin-3-one] | 136 nM | 92.3 nM
3 | COCC1(C)Nc2c(cnc3[nH]cc(C(=O)c4ccc(Oc5cc(C)ccn5)cc4Cl)c23)NC1=O (single isomer, unassigned) [Z64-2, 9-(2-chloro-4-((4-methylpyridin-2-yl)oxy)benzoyl)-2-(methoxymethyl)-2-methyl-1,2,4,7-tetrahydro-3H-pyrrolo[3′,2′:5,6]pyrido[3,4-b]pyrazin-3-one] | 8.4 nM | 17.2 nM
4 | CCOC[C@@]1(C)Nc2c(cnc3[nH]cc(C(=O)c4ccc(Oc5ccccc5)cc4Cl)c23)NC1=O (single isomer, unassigned) [Z67-2] | 20.4 nM | 17.8 nM
5 | CN1CCC2(CC1)Nc1c(cnc3[nH]cc(C(=O)c4ccc(Oc5ccccc5)cc4Cl)c13)NC2=O [Z17, 9′-(2-chloro-4-phenoxybenzoyl)-1-methyl-4′,7′-dihydrospiro[piperidine-4,2′-pyrrolo[3′,2′:5,6]pyrido[3,4-b]pyrazin]-3′(1′H)-one] | 345 nM | 273 nM
6 | O=C(c1ccc(Oc2ccccc2)cc1Cl)c1c[nH]c2ncc3c(c12)NC1(CCOC1)CO3 (centres unmarked) [Z18] | 145 nM | 87.7 nM
7 | CN1CCCC2(C1)Nc1c(cnc3[nH]cc(C(=O)c4ccc(Oc5ccccc5)cc4Cl)c13)NC2=O (centres unmarked) [Z19, 9′-(2-chloro-4-phenoxybenzoyl)-1-methyl-4′,7′-dihydrospiro[piperidine-3,2′-pyrrolo[3′,2′:5,6]pyrido[3,4-b]pyrazin]-3′(1′H)-one] | 23.1 nM | 12.6 nM
8 | CN1C(=O)C2(CCOCC2)Nc2c1cnc1[nH]cc(C(=O)c3ccc(Oc4ccccc4)cc3Cl)c21 [Z22, 9′-(2-chloro-4-phenoxybenzoyl)-4′-methyl-2,3,4′,5,6,7′-hexahydrospiro[pyran-4,2′-pyrrolo[3′,2′:5,6]pyrido[3,4-b]pyrazin]-3′(1′H)-one] | 27.1 nM | 7.2 nM
9 | CC1(CO)Nc2c(cnc3[nH]cc(C(=O)c4ccc(Oc5ncccc5C(F)(F)F)cc4Cl)c23)NC1=O (centres unmarked) [Z55, 9-(2-chloro-4-((3-(trifluoromethyl)pyridin-2-yl)oxy)benzoyl)-2-(hydroxymethyl)-2-methyl-4,7-dihydro-1H-pyrrolo[3′,2′:5,6]pyrido[3,4-b]pyrazin-3(2H)-one] | 142 nM | 120 nM
10 | Cc1ccnc(Oc2ccc(C(=O)c3c[nH]c4ncc5c(c34)NC(C)(CO)C(=O)N5)c(Cl)c2)c1 (centres unmarked) [Z56, 9-(2-chloro-4-((4-methylpyridin-2-yl)oxy)benzoyl)-2-(hydroxymethyl)-2-methyl-1,2,4,7-tetrahydro-3H-pyrrolo[3′,2′:5,6]pyrido[3,4-b]pyrazin-3-one] | 22.9 nM | 18.4 nM
11 | CN(C)CCN1C(=O)C(C)(C)Nc2c1cnc1[nH]cc(C(=O)c3ccc(Oc4ccccc4)cc3Cl)c21 [Z63] | 185 nM | 129 nM
12 | COCC1(C)Nc2c(cnc3[nH]cc(C(=O)c4ccc(Oc5cc(C)ccn5)cc4F)c23)NC1=O (centres unmarked) [Z69, 9-(2-fluoro-4-((4-methylpyridin-2-yl)oxy)benzoyl)-2-(methoxymethyl)-2-methyl-1,2,4,7-tetrahydro-3H-pyrrolo[3′,2′:5,6]pyrido[3,4-b]pyrazin-3-one] | 34.8 nM | 28 nM

Other lines, results leading:

Row | IC50 (BTK) | IC50 (BTK (C481S)) | SMILES
13 | 13.9 nM | 21.2 nM | COCC1(C)Nc2c(cnc3[nH]cc(C(=O)c4ccc(Oc5cc(C)ccn5)cc4F)c23)NC1=O (single isomer, unassigned) [Z69-1, 9-(2-fluoro-4-((4-methylpyridin-2-yl)oxy)benzoyl)-2-(methoxymethyl)-2-methyl-1,2,4,7-tetrahydro-3H-pyrrolo[3′,2′:5,6]pyrido[3,4-b]pyrazin-3-one]
14 | 17.5 nM | 28.3 nM | COCC1(C)Nc2c(cnc3[nH]cc(C(=O)c4ccc(Oc5cc(C)ccn5)cc4F)c23)NC1=O (single isomer, unassigned) [Z69-2, 9-(2-fluoro-4-((4-methylpyridin-2-yl)oxy)benzoyl)-2-(methoxymethyl)-2-methyl-1,2,4,7-tetrahydro-3H-pyrrolo[3′,2′:5,6]pyrido[3,4-b]pyrazin-3-one]
15 | 23.5 nM | 19.2 nM | COC[C@]1(C)Nc2c(cnc3[nH]cc(C(=O)c4ccc(Oc5ccccc5)cc4F)c23)NC1=O (single isomer, unassigned) [Z71-2]
16 | 15.3 nM | 29.5 nM | COCC1(C)Nc2c(cnc3[nH]cc(C(=O)c4ccc(Oc5cc(C6CC6)ccn5)cc4Cl)c23)NC1=O (single isomer, unassigned) [Z73-1, 9-(2-chloro-4-((4-cyclopropylpyridin-2-yl)oxy)benzoyl)-2-(methoxymethyl)-2-methyl-4,7-dihydro-1H-pyrrolo[3′,2′:5,6]pyrido[3,4-b]pyrazin-3(2H)-one]
17 | 34.3 nM | 60.8 nM | COCC1(C)Nc2c(cnc3[nH]cc(C(=O)c4ccc(Oc5cc(C6CC6)ccn5)cc4Cl)c23)NC1=O (single isomer, unassigned) [Z73-2, 9-(2-chloro-4-((4-cyclopropylpyridin-2-yl)oxy)benzoyl)-2-(methoxymethyl)-2-methyl-4,7-dihydro-1H-pyrrolo[3′,2′:5,6]pyrido[3,4-b]pyrazin-3(2H)-one]
18 | 114 nM | 51.1 nM | COCCOCC1(C)Nc2c(cnc3[nH]cc(C(=O)c4ccc(Oc5ccccc5)cc4Cl)c23)NC1=O (single isomer, unassigned) [Z153-2, 9-(2-chloro-4-phenoxybenzoyl)-2-((2-methoxyethoxy)methyl)-2-methyl-1,2,4,7-tetrahydro-3H-pyrrolo[3′,2′:5,6]pyrido[3,4-b]pyrazin-3-one]
19 | 5.8 nM | 3.2 nM | COC[C@]1(C)Nc2c(cnc3[nH]cc(C(=O)c4ccccc4Cl)c23)NC1=O [Z79, (S)-9-(2-chlorobenzoyl)-2-(methoxymethyl)-2-methyl-1,2,4,7-tetrahydro-3H-pyrrolo[3′,2′:5,6]pyrido[3,4-b]pyrazin-3-one]
20 | 15.2 nM | 18.5 nM | COC[C@]1(C)Nc2c(cnc3[nH]cc(C(=O)c4cc(F)ccc4Cl)c23)NC1=O [Z85, (S)-9-(2-chloro-5-fluorobenzoyl)-2-(methoxymethyl)-2-methyl-1,2,4,7-tetrahydro-3H-pyrrolo[3′,2′:5,6]pyrido[3,4-b]pyrazin-3-one]
21 | 16 nM | 9.7 nM | COC[C@]1(C)Nc2c(cnc3[nH]cc(C(=O)c4ccccc4Br)c23)NC1=O [Z86, (S)-9-(2-bromobenzoyl)-2-(methoxymethyl)-2-methyl-1,2,4,7-tetrahydro-3H-pyrrolo[3′,2′:5,6]pyrido[3,4-b]pyrazin-3-one]
22 | 23.4 nM | 7.5 nM | COC[C@]1(C)Nc2c(cnc3[nH]cc(C(=O)c4ccccc4)c23)NC1=O [Z89, (S)-9-benzoyl-2-(methoxymethyl)-2-methyl-1,2,4,7-tetrahydro-3H-pyrrolo[3′,2′:5,6]pyrido[3,4-b]pyrazin-3-one]
23 | 20.1 nM | 9.8 nM | COC[C@]1(C)Nc2c(cnc3[nH]cc(C(=O)c4sccc4Cl)c23)NC1=O [Z103, (S)-9-(3-chlorothiophene-2-carbonyl)-2-(methoxymethyl)-2-methyl-1,2,4,7-tetrahydro-3H-pyrrolo[3′,2′:5,6]pyrido[3,4-b]pyrazin-3-one]
24 | 61.8 nM | 61.1 nM | COC[C@]1(C)Nc2c(cnc3[nH]cc(C(=O)c4ccc(OC)cc4Cl)c23)NC1=O [Z113, (S)-9-(2-chloro-4-methoxybenzoyl)-2-(methoxymethyl)-2-methyl-1,2,4,7-tetrahydro-3H-pyrrolo[3′,2′:5,6]pyrido[3,4-b]pyrazin-3-one]
25 | 64.1 nM | 70.5 nM | COC[C@]1(C)Nc2c(cnc3[nH]cc(C(=O)c4ccc(OC5CCCC5)cc4Cl)c23)NC1=O [Z122, (S)-9-(2-chloro-4-(cyclopentyloxy)benzoyl)-2-(methoxymethyl)-2-methyl-1,2,4,7-tetrahydro-3H-pyrrolo[3′,2′:5,6]pyrido[3,4-b]pyrazin-3-one]
26 | 28.2 nM | 29.1 nM | COC[C@]1(C)Nc2c(cnc3[nH]cc(C(=O)c4ccc(Oc5ccccc5)cc4)c23)NC1=O [Z125-1, (S)-2-(methoxymethyl)-2-methyl-9-(4-phenoxybenzoyl)-1,2,4,7-tetrahydro-3H-pyrrolo[3′,2′:5,6]pyrido[3,4-b]pyrazin-3-one]
27 | 29.1 nM | 31.5 nM | COC[C@]1(C)Nc2c(cnc3[nH]cc(C(=O)c4ccc(Oc5cc(C)cc(C)n5)cc4Cl)c23)NC1=O [Z127-1, (S)-9-(2-chloro-4-((4,6-dimethylpyridin-2-yl)oxy)benzoyl)-2-(methoxymethyl)-2-methyl-1,2,4,7-tetrahydro-3H-pyrrolo[3′,2′:5,6]pyrido[3,4-b]pyrazin-3-one]
28 | 28.8 nM | 38.4 nM | COC[C@]1(C)Nc2c(cnc3[nH]cc(C(=O)c4ncc(Oc5ccccc5)cc4Cl)c23)NC1=O [Z133]
